This note sets out measurements from PubChem BioAssay (NCI).

Among the test systems are A498 renal; A549 NSCLC; DU-145 prostate; EKVX NSCLC; HOP-92 NSCLC; HS 578T breast; K-562 leukemia; MCF7 breast; OVCAR-5 ovarian; PC-3 prostate.
Holding throughout (test): NCI anticancer screen, dose series, 48 h

SMILES strings stand for the structures. “And” between values parts separate entries of the source, which are not always exact repeats. Equal entries are not always repeated.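 1) Cells in 96-well plates. 2) Compound, 48 h, 5 concentrations. 3) Linear interpolation between surrounding doses. 4) Unreached endpoint = highest concentration. GI50 marks 50% less growth. TGI: concentration producing complete growth inhibition.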

Take `C/C(=N\NC(=S)N1CCN(c2ccccn2)CC1)c1ccccn1`: the GI50 in the assay on A498 renal is 1.67 µM; in the assay on A549 NSCLC, 0.0464 µM; with EKVX NSCLC, 0.000138 µM; in the assay with HOP-92 NSCLC it was 0.00295 µM; in the assay on HS 578T breast it was 1.28 µM; in the assay with OVCAR-5 ovarian, 0.159 µM. The TGI in the assay with A498 renal was found to be 15 µM; with A549 NSCLC, 13.7 µM; in the assay on DU-145 prostate, 14.1 µM; in the assay on HOP-92 NSCLC, 13 µM; with HS 578T breast, 27.9 µM; in the assay with K-562 leukemia, 0.0341 µM. Further, the TGI in the assay on MCF7 breast is 11.4 µM; in the assay with OVCAR-5 ovarian, 13.4 µM; in the assay on PC-3 prostate it was 15.1 µM.

Regarding `CN1CCN(C(=O)[C@@]2(C)CC[C@]3(C)CC[C@]4(C)C(=CC[C@@H]5[C@@]6(C)CCC(=O)NC(C)(C)[C@@H]6CC[C@]54C)[C@@H]3C2)CC1`, the GI50 in the assay with A498 renal is 2.68 µM; in the assay with A549 NSCLC, 2.02 µM; in the assay on DU-145 prostate, 3.44 µM; in the assay on EKVX NSCLC, 2.74 µM; in the assay on HOP-92 NSCLC, 1.05 µM; in the assay with HS 578T breast, 2.06 µM. The GI50 was 1.07 µM with K-562 leukemia, 1.83 µM with MCF7 breast, 1.65 µM in the assay with OVCAR-5 ovarian and 0.813 µM in the assay on PC-3 prostate. The TGI in the assay on A498 renal amounted to 12.1 µM; in the assay on A549 NSCLC, 5.28 µM; in the assay on DU-145 prostate it was 12.1 µM; with EKVX NSCLC, 12.8 µM; in the assay with HOP-92 NSCLC, 3.89 µM; with HS 578T breast it was 6.78 µM. Moreover, the TGI is 3.02 µM with K-562 leukemia, 4.17 µM with MCF7 breast, 3.17 µM in the assay on OVCAR-5 ovarian and 2.42 µM in the assay on PC-3 prostate.

For the molecule `COc1cc2c3c(n(CCCN4CCNCC4)c(=O)c2cc1OC)-c1cc2c(cc1C3=O)OCO2`, the GI50 was 0.281 µM with A498 renal; 0.0393 µM in the assay on A549 NSCLC; 0.0439 µM in the assay with DU-145 prostate; 8.51 µM in the assay with EKVX NSCLC; 0.041 µM in the assay with HOP-92 NSCLC; 1.26 µM with HS 578T breast. Besides, the GI50 in the assay on K-562 leukemia was 0.111 µM; in the assay with MCF7 breast it was 0.0119 µM; in the assay with OVCAR-5 ovarian, 1.75 µM; with PC-3 prostate, 0.94 µM. For the same molecule, the TGI in the assay with A498 renal amounted to 4.44 µM; in the assay with A549 NSCLC, 0.922 µM; in the assay with DU-145 prostate it was 1.02 µM; in the assay on EKVX NSCLC, 17.2 µM; with HOP-92 NSCLC, 1.28 µM; in the assay with HS 578T breast it was 16.2 µM. Also, the TGI in the assay with K-562 leukemia was found to be 18.3 µM; in the assay with MCF7 breast it was 7.66 µM; with OVCAR-5 ovarian it was 6.77 µM; in the assay with PC-3 prostate it was 10.1 µM.

For the molecule `C/C(CCC(=O)O)=N/Nc1ccc([N+](=O)[O-])cc1`, the GI50 in the assay with A498 renal was > 100 µM; in the assay with A549 NSCLC, 4.41 µM; in the assay on DU-145 prostate, > 100 µM; with EKVX NSCLC, 28.5 µM; in the assay with HOP-92 NSCLC, > 100 µM; in the assay on HS 578T breast, > 100 µM. The GI50 is 0.563 µM in the assay on K-562 leukemia, 24.4 µM with MCF7 breast, > 100 µM with OVCAR-5 ovarian and 11.5 µM in the assay on PC-3 prostate. Also, the TGI with A498 renal, in the assay with A549 NSCLC, with DU-145 prostate, in the assay on EKVX NSCLC, in the assay with HOP-92 NSCLC and in the assay on HS 578T breast was > 100 µM throughout. Moreover, the TGI with K-562 leukemia, in the assay on MCF7 breast, with OVCAR-5 ovarian and with PC-3 prostate was > 100 µM each time.

On to `CCCCCCC1N=C(N)N=C(N)N1c1cccc(Cl)c1` (stereo not given), for which the GI50 was 2.67 µM with A498 renal; 0.181 µM in the assay with A549 NSCLC; 0.587 µM in the assay with DU-145 prostate; 0.307 µM with EKVX NSCLC; 0.491 µM in the assay with HOP-92 NSCLC; 0.871 µM in the assay with HS 578T breast. Further, the GI50 in the assay with K-562 leukemia was 0.841 µM; in the assay on MCF7 breast, 0.368 µM; in the assay on OVCAR-5 ovarian, 0.794 µM; with PC-3 prostate, 0.0576 µM. Further, the TGI is 15.6 µM in the assay on A498 renal; > 44.5 µM in the assay on A549 NSCLC; 18 µM in the assay with DU-145 prostate; 19.3 µM in the assay on EKVX NSCLC; 5.94 µM with HOP-92 NSCLC; 9.22 µM in the assay on HS 578T breast. The TGI in the assay on K-562 leukemia was found to be 24.6 µM; in the assay on MCF7 breast, 12.7 µM; with OVCAR-5 ovarian it was 23.1 µM; with PC-3 prostate, 16 µM.

As to `O=C(Cn1c(C(=O)c2ccc(Cl)cc2)nc(-c2ccc(Cl)cc2)c1-c1ccc(Cl)cc1)c1ccccc1`, the GI50 with A498 renal was > 100 µM; with A549 NSCLC it was > 100 µM; in the assay on DU-145 prostate it was > 100 µM; with EKVX NSCLC, > 100 µM; with HOP-92 NSCLC, 12.9 µM; in the assay on HS 578T breast, > 100 µM. The GI50 with K-562 leukemia, with MCF7 breast, with OVCAR-5 ovarian and in the assay on PC-3 prostate was > 100 µM each time. Moreover, the TGI in the assay on A498 renal, in the assay with A549 NSCLC, with DU-145 prostate, in the assay with EKVX NSCLC, in the assay with HOP-92 NSCLC and in the assay with HS 578T breast was > 100 µM each time. Besides, the TGI in the assay on K-562 leukemia, with MCF7 breast, in the assay on OVCAR-5 ovarian and in the assay on PC-3 prostate was > 100 µM each time.

For the molecule `N#Cc1c(NCc2ccccc2)nc(NCc2ccccc2)c(C#N)c1-c1ccc(Cl)cc1`, the GI50 in the assay on A498 renal is > 50 µM and 33 µM; with A549 NSCLC it was > 50 µM and 51.5 µM; in the assay on DU-145 prostate, > 50 µM and 52.8 µM; in the assay with EKVX NSCLC, 50.8 µM; with HOP-92 NSCLC it was > 50 µM; with HS 578T breast, > 50 µM and 37.8 µM. The GI50 in the assay on K-562 leukemia is > 50 µM; in the assay on MCF7 breast, > 50 µM and 66.8 µM; in the assay with OVCAR-5 ovarian, > 50 µM and 77.3 µM; in the assay on PC-3 prostate it was > 50 µM and 61.2 µM. Besides, the TGI with A498 renal is > 50 µM and 89.7 µM; with A549 NSCLC, > 100 µM; with DU-145 prostate it was > 100 µM; in the assay with EKVX NSCLC, > 100 µM; in the assay on HOP-92 NSCLC, > 50 µM; with HS 578T breast, > 50 µM and 86.6 µM. Moreover, the TGI is > 50 µM in the assay on K-562 leukemia, > 100 µM in the assay with MCF7 breast, > 100 µM in the assay on OVCAR-5 ovarian and > 100 µM with PC-3 prostate.

Consider `CCN1CCC(CC(=O)Nc2n[nH]c3nnc(-c4cccc(F)c4F)cc23)CC1`, for which the GI50 is 2.84 µM in the assay on A498 renal; > 25 µM in the assay on A549 NSCLC; > 25 µM in the assay on DU-145 prostate; > 25 µM in the assay on EKVX NSCLC; > 25 µM in the assay with HOP-92 NSCLC; > 19.9 µM in the assay with HS 578T breast. Besides, the GI50 was > 25 µM in the assay with K-562 leukemia, 4.11 µM in the assay with MCF7 breast, > 25 µM in the assay on OVCAR-5 ovarian and > 25 µM in the assay on PC-3 prostate. The TGI in the assay on A498 renal, in the assay on A549 NSCLC, in the assay on DU-145 prostate, in the assay on EKVX NSCLC, in the assay on HOP-92 NSCLC and with HS 578T breast was > 25 µM throughout. In addition, the TGI with K-562 leukemia, with MCF7 breast, with OVCAR-5 ovarian and in the assay on PC-3 prostate was > 25 µM each time.

Take `N#CC(C#N)=NNc1ccc2cn[nH]c2c1`: the TGI in the assay on A498 renal is > 100 µM; with A549 NSCLC, > 100 µM; in the assay with DU-145 prostate, 82.9 µM; in the assay on EKVX NSCLC it was > 100 µM; in the assay on HOP-92 NSCLC it was > 100 µM; in the assay with HS 578T breast, > 100 µM. For the same molecule, the TGI in the assay on K-562 leukemia, in the assay with MCF7 breast, with OVCAR-5 ovarian and in the assay with PC-3 prostate was > 100 µM in each case.

Turning to `CN1CCN(Cc2ccc(NC(=O)c3cncc(C#Cc4c(N)ncc5ccc(C#N)cc45)c3)cc2C(F)(F)F)CC1`, the GI50 in the assay with A498 renal is 1.07 µM; in the assay on A549 NSCLC, 0.867 µM; in the assay on DU-145 prostate, 0.829 µM; with EKVX NSCLC it was 0.791 µM; in the assay on HOP-92 NSCLC, 0.412 µM; with HS 578T breast it was 0.741 µM. In addition, the GI50 was 0.005 µM in the assay on K-562 leukemia, 0.694 µM in the assay on MCF7 breast, 0.813 µM with OVCAR-5 ovarian and 0.891 µM in the assay on PC-3 prostate. For the same molecule, the TGI was 6.35 µM with A498 renal; 1.68 µM with A549 NSCLC; 1.59 µM in the assay with DU-145 prostate; 1.57 µM in the assay on EKVX NSCLC; 6.35 µM with HOP-92 NSCLC; 9.45 µM in the assay with HS 578T breast. In addition, the TGI was 0.266 µM in the assay with K-562 leukemia, 1.59 µM in the assay on MCF7 breast, 1.61 µM with OVCAR-5 ovarian and 1.75 µM with PC-3 prostate.

Consider `CC1CCCC(C(=O)CC2CC(=O)NC(=O)C2)C1=O` (stereo not given), for which the TGI in the assay on A498 renal, in the assay on A549 NSCLC, in the assay with DU-145 prostate, with EKVX NSCLC, with HOP-92 NSCLC and in the assay on HS 578T breast was > 100 µM throughout. Besides, the TGI with K-562 leukemia, with MCF7 breast, in the assay with OVCAR-5 ovarian and in the assay with PC-3 prostate was > 100 µM each time.

Consider `Oc1cc(N2CC2)c(O)cc1N1CC1`, for which the GI50 was 0.581 µM with A498 renal; 0.783 µM in the assay on A549 NSCLC; 0.254 µM in the assay with DU-145 prostate; 2.62 µM in the assay with EKVX NSCLC; 2.33 µM in the assay with HOP-92 NSCLC; 2.33 µM in the assay with HS 578T breast. Besides, the GI50 with K-562 leukemia was 1.2 µM; with MCF7 breast it was 0.387 µM; in the assay on OVCAR-5 ovarian it was 1.88 µM; with PC-3 prostate it was 1.85 µM. For the same molecule, the TGI is 2.55 µM in the assay with A498 renal; 10.7 µM in the assay with A549 NSCLC; 1.37 µM in the assay on DU-145 prostate; 9.87 µM in the assay with EKVX NSCLC; 7.9 µM in the assay with HOP-92 NSCLC; > 22.9 µM in the assay with HS 578T breast. Also, the TGI with K-562 leukemia was 15.4 µM; in the assay with MCF7 breast it was 4.21 µM; in the assay on OVCAR-5 ovarian, 9.93 µM; with PC-3 prostate, 14.6 µM.
